# According to publication PMC12097015, “Development of MDM2‐Targeting PROTAC for Advancing Bone Regeneration” (Advanced Science, 2025):
# pKd: −log10 of the molar value.
# How the values were obtained:
# MDM2 [1] = target: T1, MDM2 (Homo sapiens, UniProt Q00987); experiment: MDM2 degradation by western blot in hBMSCs; type: cell-based; parameters: endogenous in cells; host or cells: hBMSCs; conditions: for MDM2 degradation (western blot) / decrease in MDM2 levels compared to the basal level: 10 μΜ for 1 h
# Procedure: Human Bone Marrow‐derived Mesenchymal Stem Cells (hBMSCs) were provided by Professor Lee's laboratory, and cells from passages four to nine were used for all experiments. hBMSCs were cultured in alpha‐minimum essential medium (Welgene, LM008‐01) supplemented with 10% Fetal Bovine Serum (FBS) (Gibco, US origin, 16000–044) and 1% penicillin/streptomycin (Gibco, 15140‐122).
# (§1) After discarding the medium and washing the cells twice with cold dPBS, the cells were collected using a scraper and lysed using RIPA buffer (GenDEPOT, R4200‐010) containing protease and phosphatase inhibitors (GenDEPOT, P3200‐001). The collected samples were centrifuged at 13 200 rpm for 10 min at 4 °C, and the supernatant containing total protein was collected. SDS‐PAGE gels (10–12%) were prepared, and protein samples were mixed with 5X loading buffer containing reducing agent (Biosesang, S2002) and heated at 98 °C for 5 min. Equal amounts of protein samples were loaded onto a gel, separated by electrophoresis, and transferred onto nitrocellulose membranes using a Dry Transfer Stacks Kit (Invitrogen, IB23001). The membrane was blocked with 5% nonfat milk in 1X TBST for 1 h at room temperature to prevent nonspecific binding. The membranes were incubated with primary antibodies specific to the target proteins overnight at 4 °C with gentle shaking. The next day, the membrane was washed three times with TBST at 10 min intervals to remove unbound primary antibodies. The membranes were incubated with secondary antibodies (anti‐rabbit and anti‐mouse) conjugated to horseradish peroxidase (HRP) for 1 h at room temperature. The membrane was washed three times with 1X TBST at 10 min intervals to remove unbound secondary antibodies. After washing, a chemiluminescent substrate (ECL, Millipore, WBULS0100) was applied to the membrane to visualize protein bands using a chemiluminescence detector (for the antibodies used, see Table S2, Supporting Information).
# The DC50 and Dmax values were calculated by western blot band quantification according to compound concentrations. The quantification value was normalized to the value relative to the untreated group and calculated using the sigmoidal dose‐response (variable slope) equation in GraphPad Prism.
# Target sequence in this assay (Q00987 whole entry): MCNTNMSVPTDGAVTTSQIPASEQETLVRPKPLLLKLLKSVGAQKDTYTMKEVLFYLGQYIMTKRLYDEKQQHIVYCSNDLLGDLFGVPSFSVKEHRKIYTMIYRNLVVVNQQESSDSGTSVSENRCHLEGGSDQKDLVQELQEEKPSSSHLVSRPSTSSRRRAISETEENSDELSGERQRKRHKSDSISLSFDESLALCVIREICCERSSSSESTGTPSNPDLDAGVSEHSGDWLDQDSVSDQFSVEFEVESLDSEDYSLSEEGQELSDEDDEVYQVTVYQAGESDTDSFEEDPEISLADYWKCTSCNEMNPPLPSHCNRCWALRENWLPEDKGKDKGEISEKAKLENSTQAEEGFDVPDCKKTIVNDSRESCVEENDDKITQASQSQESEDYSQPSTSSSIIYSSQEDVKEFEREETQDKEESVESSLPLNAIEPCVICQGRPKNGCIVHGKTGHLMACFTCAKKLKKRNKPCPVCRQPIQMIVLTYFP
# [2] = system: OVX-induced osteoporosis model; experiment: Ovariectomy (OVX)-induced osteoporosis mouse model; type: in vivo, C57BL6 mice; conditions: OVX mice
# Procedure: -Establishment of Ovariectomized Mice Model: The experimental protocols were approved by the IACUC (Approval code: IACUC230118) at the CHA Laboratory Animal Research Center. The mice were handled in compliance with the Guidelines for the Care and Use of Animals at the institution. Female C57BL6 mice (seven weeks old (n = 57)) were randomly divided into six groups (n = 8-10): […] All surgeries and pump implantations were performed under aseptic conditions. Mice were anesthetized before removing both sides of the ovaries. In the fourth week following surgery, an Alzet osmotic pump (Durect Corp, #1004) was implanted in the mice. […] Images were acquired at an effective pixel size of 50 μm (130 kV and 60 μA radiation source; 1.0 mm aluminum filter). Subsequently, 3D images were reconstructed from the 2D X-ray projections by implementing the Feldkamp algorithm, and appropriate image corrections, including ring artifact correction, beam hardening correction, and fine-tuning, were processed using NRecon software (SkyScan 1173, Belgium). The dynamic image range (contrast limits) was determined at 0-0.3 in units of attenuation coefficient and was applied to all datasets for optimum image contrast. After acquisition and reconstruction of the datasets, images were first reoriented on each 3D plane using DataViewer software (SkyScan 1173, Belgium) to align the long axis of the femur parallel to the coronal and sagittal planes. Next, 3D morphometric analyses of the distal femur and body of the lumbar vertebrae were performed using CT-Analyzer software (SkyScan 1173, Belgium). Regarding the region of interest (ROI), this work analyzed the 1.5 mm […] trabecular bone of the distal femur metaphysis, excluding the growth plate. The ROIs were delineated using a freehand drawing tool while maintaining a […] clearance from the endosteal surface. […] A global threshold of 60 (1.01573 g cm^-3) was applied to all scans to extract a physiologically accurate representation of the trabecular bone phase. […] All quantitative and structural parameters followed the nomenclature and units recommended by the American Society for Bone and Mineral Research (ASBMR) Histomorphometry Nomenclature Committee. After data quantification,^[ [26b] ^] 3D rendered images were generated to visualize the analyzed regions using the marching cube method. -H&E staining: Following decalcification, the specimens were fixed in paraffin and longitudinally sliced to a thickness of 3 μm using a microtome. Subsequently, each sample was affixed to a slide and exposed to a temperature of 55 °C. […] The slides underwent a 1 min wash in flowing purified water and immersed in Harris hematoxylin-I for 5 min, followed by a 1 min wash under flowing tap water. Sections were briefly immersed in ammonia water for 30 s and washed with tap water for 3 min. Subsequently, the sections were stained with Eosin Y for 2 min and 30 s, followed by gradual drying in 95%-100% ethanol. Any residual stain was rinsed with distilled water and each section was mounted. -Masson's trichrome staining: Following deparaffinization and hydration, the sections underwent treatment with a mordant containing a 5% iron alum solution in a dry oven at 56 °C for 30 min. Sections were washed under running tap water for 5-6 min to remove picric acid. Sections were stained with Weigert's iron hematoxylin solution for 10 min, followed by rinsing with purified water. A 5 min staining with Biebrich scarlet-acid fuchsin solution ensued, succeeded by washing with purified water. The sections were immersed in a phosphomolybdic-phosphotungstic acid solution for 5 min. After discarding the solution, the sections were washed with distilled water. Differentiation was performed in 1% glacial acetic acid solution for 3 min. The solution was discarded, and the remaining stain was washed with distilled water.
# MDM2 [3] = target: T1, MDM2; experiment: Immunoblot with the intracellular proteasome system blocked by a proteasome inhibitor; type: cell-based; conditions: 0.5–2 μΜ carfilzomib with PROTAC
# Procedure: as §1, with “After washing, a chemiluminescent substrate (ECL, Millipore, WBULS0100) was applied to the membrane to visualize protein bands using a chemiluminescence detector (for the antibodies used, see Table S2, Supporting Information).” left out
# Target sequence in this assay (Q00987 whole entry, species assumed): as the sequence (Q00987 whole entry) above
# hBMSCs [4] = experiment: Cell viability / apoptosis of hBMSCs; type: cell-based, human
# osteocalcin (OCN) = experiment: Immunostaining of osteogenic markers in hBMSCs; type: cell-based, human; conditions: 10 µM
# hBMSCs [5] = experiment: Calcium deposit staining (X-Rhod-1) in hBMSCs; type: cell-based, human; conditions: X‐Rhod‐1, p < 0.05
# Procedure: hBMSCs were differentiated in the presence of the 10 mM β‐glycerophosphate (Sigma‐Aldrich, G9422) and 50 µM ascorbic acid (Sigma‐Aldrich, A4403) in culture medium for 10 d. Subsequently, the cells were fixed with 4% PFA for 30 min, followed by two washes with Mg^2+‐and Ca^2+‐free dPBS (Welgene, LB‐204). To stain for calcium, X‐Rhod‐1 (Invitrogen, X14210) dye was diluted in Mg^2+‐and Ca^2+‐free dPBS at a concentration of 1 µM and incubated at room temperature in the dark for 1 h. The cells were then washed five times with Mg^2+‐and Ca^2+‐free dPBS at 10 min intervals. The samples were observed under a Cytation5 microscope (Agilent Technologies) at a wavelength of 595 nm.
# EGFP‐MDM2 = experiment: EGFP-MDM2 fluorescence / live imaging degradation assay; type: cell-based
# Procedure: HeLa cells were cultured in DMEM (Welgene, LM001‐05) supplemented with 10% FBS (Welgene, S001‐07). For transient transfection, the cells were seeded at ≈70% confluence. The following day, transfection was performed using Lipofectamine 3000 (Invitrogen, L3000015) for 24 h according to the manufacturer's protocol. The cells were transfected with 100 ng of EGFP‐MDM2 per well in the 96‐well plate and were transfected with 2 µg of MDM2 WT and 2 µg of HA‐ubiquitin, total 4 µg per well in the 6‐well plate.
# To construct the EGFP‐MDM2 plasmid DNA, MDM2 WT was amplified by PCR using specific primers. The PCR products were digested with BamH1 and EcoR1 to generate compatible ends. The plasmid backbone, EGFP‐C1, previously digested with the same enzyme, was ligated into the digested PCR product using T4 ligase (Biolabs, M0202S). The resulting plasmid construct was confirmed using restriction enzyme digestion and DNA sequencing. MDM2 WT (#16233) and HA‐ubiquitin (#18712) were purchased from Addgene (used primer sequences, see Table S2, Supporting Information).
# Real‐time Live cell imaging (phase contrast, EGFP fluorescence) was performed to monitor EGFP‐MDM2 intensity at 7 min intervals after compound treatment using Cytation5 (Agilent) laser autofocus conditions to capture EGFP fluorescence to assess intensity. For fluorescence imaging, the cells were fixed using 4% PFA and washed three times with 1X dPBS. Fluorescence imaging was performed using the Cytation5. The intensity of fluorescence was assessed by tracking the fluorescence of individual cells in each image using the Time‐lapse analyzer or ROI measure feature of the Fiji ImageJ software (Version 1.54 h, USA).
# MDM2 [6] = target: T1, MDM2; experiment: Microscale thermophoresis (MST) binding assay; parameters: made in house; host or cells: E. coli BL21 (DE3); conditions: His-Tag MDM2, n = 3, read-out: dissociation constant (Kd)
# Target sequence in this assay (Q00987 whole entry, species assumed): as the sequence (Q00987 whole entry) above
# Procedure: E. coli BL21 (DE3) competent cells transformed with pSPEL870 were used to express MDM2 protein.^[ [27] ^] The recombinant strain was cultured in 500 mL 2XYT at 37 °C until the optical density (OD600 ) reached 0.5. Protein expression was induced by adding 0.2 mM isopropyl β‐D‐1‐thiogalactopyranoside (IPTG; Bioshop, Canada) at 20 °C overnight. […] The protein was purified using Ni‐NTA resin (Qiagen, Germany), according to the manufacturer's protocol. The purified protein was buffer exchanged with phosphate‐buffered saline (PBS, pH 7.4) using a centrifugal filter unit (MWCO: 10 K; Merck Millipore, USA). The protein was stored at –20 °C in PBS with 20% glycerol and 1 mM dithiothreitol (DTT).
# The His‐Tag MDM2 protein was labeled using a His‐Tag Labeling Kit RED‐tris‐NTA second Generation (NanoTemper, MO‐L018) according to the manufacturer's instructions. […] The final mixtures were transferred to capillaries (NanoTemper, MO‐K022) and the samples were measured using a Monolith NT.115Pico (NanoTemper) instrument (auto LED power; medium MST power). […] The signals were represented as normalized changes in fluorescence (Fnorm ) upon ligand binding. Baseline‐corrected normalized fluorescence (DFnorm ) was obtained from Fnorm values using MO Affinity Analysis, and the dissociation constants (Kd ) were determined by curve fitting (variable slope model) using GraphPad Prism 10.
# [7] = alendronate comparison study, 0.5 mg kg^−1, n = 6
smiles,measurement,setting,value
COc1ccc(C2=N[C@@H](c3ccc(Cl)cc3)[C@@H](c3ccc(Cl)cc3)N2C(=O)N2CCN(CC(=O)NCCOCCOCCNC(=O)CN3CCN(C(=O)N4C(c5ccc(OC)cc5OC(C)C)=N[C@H](c5ccc(Cl)cc5)[C@@H]4c4ccc(Cl)cc4)CC3=O)C(=O)C2)c(OC(C)C)c1 [CL117],MDM2 degradation (western blot),MDM2 [1],did not induce the degradation of MDM2
"NCCCC(O)(P(=O)(O)O)P(=O)(O)O [alendronate, reference compound]",increase in trabecular thickness (Tb.Th) relative to the OVX group,[2]; [7],17.07%
same,recovery in BV/TV relative to the OVX group,[2]; [7],38.66%
COc1ccc(C2=N[C@H](c3ccc(Cl)cc3)[C@H](c3ccc(Cl)cc3)N2C(=O)N2CCN(CC(=O)OC(C)(C)C)C(=O)C2)c(OC(C)C)c1 [CL139],MDM2 degradation (western blot),MDM2 [1],did not induce the degradation of MDM2
CC(C)C[C@H](NC(=O)[C@H](CCc1ccccc1)NC(=O)CN1CCOCC1)C(=O)N[C@@H](Cc1ccccc1)C(=O)N[C@@H](CC(C)C)C(=O)[C@@]1(C)CO1 [carfilzomib],effect on PROTAC-induced MDM2 proteolysis,MDM2 [3],blocked the efficacy of PROTAC in a dose‐dependent manner
COc1ccc(C2=N[C@H](c3ccc(Cl)cc3)[C@H](c3ccc(Cl)cc3)N2C(=O)N2CCN(CC(=O)NCCCCCCCCCCCOc3cccc4c3C(=O)N(C3CCC(=O)NC3=O)C4=O)C(=O)C2)c(OC(C)C)c1 (stereo partly drawn) [CL145],decrease in MDM2 levels compared to the basal level,MDM2 [1],over 80%
"COc1ccc(C2=N[C@@H](c3ccc(Cl)cc3)[C@@H](c3ccc(Cl)cc3)N2C(=O)N2CCNC(=O)C2)c(OC(C)C)c1 [Nutlin-3, reference compound]",cell viability,hBMSCs [4],without adversely affecting cell viability
same,bone histology (H&E staining) versus OVX group,[2]; tibia and femur tissues,no significant differences
same,osteocalcin (OCN) protein intensity compared to the control group,osteocalcin (OCN),no statistically significant difference
same,calcium deposits compared to the control group,hBMSCs [5],significantly increased
"O=C1CCC(N2Cc3c(C#CCCCNC(=O)c4ccc(NC(=O)[C@@H]5NC6(CCCCC6)[C@@]6(C(=O)Nc7cc(Cl)ccc76)[C@H]5c5cccc(Cl)c5F)cc4)cccc3C2=O)C(=O)N1 (stereo partly drawn) [MD224, reference compound]",degradation efficiency of EGFP‐MDM2 by concentration,EGFP‐MDM2; low concentrations (0.01–0.1 µM) versus higher concentrations (1–10 µM),greater degradation efficiency of EGFP‐MDM2 compared to higher concentrations
COc1ccc(C2=NC(c3ccc(Cl)cc3)C(c3ccc(Cl)cc3)N2C(=O)N2CCN(CC(=O)NCCCCCCCC#Cc3cccc4c3C(=O)N(C3CCC(=O)NC3=O)C4=O)C(=O)C2)c(OC(C)C)c1 (stereo not drawn) [CL174],pKd,MDM2 [6],5.90
same,concentration at which maximum degradation efficiency was achieved,"EGFP‐MDM2; live imaging, 0.01 to 10 µM",1 µM
same,nuclear EGFP signal,"EGFP‐MDM2; live imaging, treatment for 4 h",almost completely turned off the nuclear EGFP signal
same,MDM2 degradation (western blot),MDM2 [1],effectively decreased MDM2 levels
same,decrease in MDM2 levels compared to the basal level,MDM2 [1],over 80%
same,maximal degradation concentration (Dmax),"MDM2 [1]; quantified western blot, 1 nM to 50 µM, n = 2",0.5 μΜ
same,DC50,"MDM2 [1]; quantified western blot, 1 nM to 50 µM, n = 2, read-out: half‐maximal degradation concentration (DC50)",60 nM
